Test results published in publication PMC10058238 (Science Advances, 2023).

Legend:
Assay type in all cases: biochemical
[1] = biological target: T1, AtSPT-ORM1 complex (LCB1, LCB2a, SPTssa, ORM1) (Arabidopsis thaliana, UniProt Q94IB8+Q9C5I0+Q9LSZ9, Q9C5I0:S67R); experiment: SPT activity, DTNB detection of CoA-SH release, […] nm
T1 construct: full-length codon-optimized cDNAs; N-terminal Flag on SPTssa, other chains untagged; HEK293F, GDN; dimer of 1:1:1:1 protomers; endogenous ceramide copurifies; with Long chain base biosynthesis protein 1; Serine palmitoyltransferase small subunit A
T1 sequence (Q9C5I0 1-157 S67R, one chain of several): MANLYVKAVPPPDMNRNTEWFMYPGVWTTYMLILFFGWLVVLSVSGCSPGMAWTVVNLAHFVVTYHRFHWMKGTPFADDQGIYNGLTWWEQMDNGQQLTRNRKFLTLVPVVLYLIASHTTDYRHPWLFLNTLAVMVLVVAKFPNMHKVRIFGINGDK

[2] = biological target: T2, AtSPT-ORM1 complex (LCB1, LCB2a, SPTssa, ORM1) (Arabidopsis thaliana, UniProt Q94IB8+Q9C5I0+Q9LSZ9, Q9C5I0:DEL2-14); experiment: as above; details: saturating 100 mM L-serine, 100 μM palmitoyl-CoA, 25 μM PLP, pH 7.5, 30 °C; ceramide site
T2 construct: full-length codon-optimized cDNAs; N-terminal Flag on SPTssa, other chains untagged; HEK293F, GDN; dimer of 1:1:1:1 protomers; endogenous ceramide copurifies; with Long chain base biosynthesis protein 1; Serine palmitoyltransferase small subunit A
T2 sequence (Q9C5I0 entry or part of it DEL2-14, one chain of several): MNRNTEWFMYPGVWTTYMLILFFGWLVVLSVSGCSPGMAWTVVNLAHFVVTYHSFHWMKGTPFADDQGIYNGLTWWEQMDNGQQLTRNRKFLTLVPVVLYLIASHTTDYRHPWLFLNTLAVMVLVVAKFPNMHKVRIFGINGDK

[3] = biological target: T3, AtSPT-ORM1 complex (LCB1, LCB2a, SPTssa, ORM1) (Arabidopsis thaliana, UniProt Q94IB8+Q9C5I0+Q9LSZ9, Q9C5I0:DEL2-8); experiment: as above
T3 construct: full-length codon-optimized cDNAs; N-terminal Flag on SPTssa, other chains untagged; HEK293F, GDN; dimer of 1:1:1:1 protomers; endogenous ceramide copurifies; with Long chain base biosynthesis protein 1; Serine palmitoyltransferase small subunit A
T3 sequence (Q9C5I0 entry or part of it DEL2-8, one chain of several): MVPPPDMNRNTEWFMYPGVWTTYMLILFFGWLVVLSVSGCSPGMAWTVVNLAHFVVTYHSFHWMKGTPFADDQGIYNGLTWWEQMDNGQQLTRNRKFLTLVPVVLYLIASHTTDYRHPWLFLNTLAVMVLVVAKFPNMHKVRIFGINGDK

[4] = biological target: T4, AtSPT-ORM1 complex (LCB1, LCB2a, SPTssa, ORM1) (Arabidopsis thaliana, UniProt Q94IB8+Q9C5I0+Q9LSZ9, Q9C5I0:N17A); experiment: as above
T4 construct: full-length codon-optimized cDNAs; N-terminal Flag on SPTssa, other chains untagged; HEK293F, GDN; dimer of 1:1:1:1 protomers; endogenous ceramide copurifies; with Long chain base biosynthesis protein 1; Serine palmitoyltransferase small subunit A
T4 sequence (Q9C5I0 1-157 N17A, one chain of several): as the sequence (Q9C5I0 1-157 S67R, one chain of several) above, with N17A, R67S counted along it

[5] = biological target: T5, AtSPT-ORM1 complex (LCB1, LCB2a, SPTssa, ORM1) (Arabidopsis thaliana, UniProt Q94IB8+Q9C5I0+Q9LSZ9); experiment: as above
T5 construct: full-length codon-optimized cDNAs; N-terminal Flag on SPTssa, other chains untagged; HEK293F, GDN; dimer of 1:1:1:1 protomers; endogenous ceramide copurifies; with Long chain base biosynthesis protein 1; Serine palmitoyltransferase small subunit A
T5 sequence (Q9C5I0 1-157, one chain of several): as the sequence (Q9C5I0 1-157 S67R, one chain of several) above, with R67S counted along it

[6] = biological target: T6, AtSPT-ORM1 complex (LCB1, LCB2a, SPTssa, ORM1) (Arabidopsis thaliana, UniProt Q94IB8+Q9C5I0+Q9LSZ9, Q9C5I0:W88R); experiment: as above; details: saturating 100 mM L-serine, 100 μM palmitoyl-CoA, 25 μM PLP, pH 7.5, 30 °C; ceramide site
T6 construct: full-length codon-optimized cDNAs; N-terminal Flag on SPTssa, other chains untagged; HEK293F, GDN; dimer of 1:1:1:1 protomers; endogenous ceramide copurifies; with Long chain base biosynthesis protein 1; Serine palmitoyltransferase small subunit A
T6 sequence (Q9C5I0 1-157 W88R, one chain of several): as the sequence (Q9C5I0 1-157 S67R, one chain of several) above, with R67S, W88R counted along it

[7] = biological target: T7, AtSPT-ORM1 complex (LCB1, LCB2a, SPTssa, ORM1) (Arabidopsis thaliana, UniProt Q94IB8+Q9C5I0+Q9LSZ9, Q9C5I0:N17A/Q9C5I0:S67R); experiment: as above; details: saturating 100 mM L-serine, 100 μM palmitoyl-CoA, 25 μM PLP, pH 7.5, 30 °C; ceramide site
T7 construct: full-length codon-optimized cDNAs; N-terminal Flag on SPTssa, other chains untagged; HEK293F, GDN; dimer of 1:1:1:1 protomers; endogenous ceramide copurifies; with Long chain base biosynthesis protein 1; Serine palmitoyltransferase small subunit A
T7 sequence (Q9C5I0 1-157 N17A/S67R, one chain of several): as the sequence (Q9C5I0 1-157 S67R, one chain of several) above, with N17A counted along it

[8] = biological target: T8, AtSPT-ORM1 complex (LCB1, LCB2a, SPTssa, ORM1) (Arabidopsis thaliana, UniProt Q94IB8+Q9C5I0+Q9LSZ9, Q9C5I0:W20R); experiment: as above; details: saturating 100 mM L-serine, 100 μM palmitoyl-CoA, 25 μM PLP, pH 7.5, 30 °C; ceramide site
T8 construct: full-length codon-optimized cDNAs; N-terminal Flag on SPTssa, other chains untagged; HEK293F, GDN; dimer of 1:1:1:1 protomers; endogenous ceramide copurifies; with Long chain base biosynthesis protein 1; Serine palmitoyltransferase small subunit A
T8 sequence (Q9C5I0 1-157 W20R, one chain of several): as the sequence (Q9C5I0 1-157 S67R, one chain of several) above, with W20R, R67S counted along it

[9] = biological target: T9, AtSPT-ORM1 complex (LCB1, LCB2a, SPTssa, ORM1) (Arabidopsis thaliana, UniProt Q94IB8+Q9C5I0+Q9LSZ9, Q9LSZ9:DEL2-5); experiment: as above
T9 construct: full-length codon-optimized cDNAs; N-terminal Flag on SPTssa, other chains untagged; HEK293F, GDN; dimer of 1:1:1:1 protomers; endogenous ceramide copurifies; with Long chain base biosynthesis protein 1; Serine palmitoyltransferase small subunit A
T9 sequence (Q9LSZ9 with tags, fused parts or gaps DEL2-5, one chain of several): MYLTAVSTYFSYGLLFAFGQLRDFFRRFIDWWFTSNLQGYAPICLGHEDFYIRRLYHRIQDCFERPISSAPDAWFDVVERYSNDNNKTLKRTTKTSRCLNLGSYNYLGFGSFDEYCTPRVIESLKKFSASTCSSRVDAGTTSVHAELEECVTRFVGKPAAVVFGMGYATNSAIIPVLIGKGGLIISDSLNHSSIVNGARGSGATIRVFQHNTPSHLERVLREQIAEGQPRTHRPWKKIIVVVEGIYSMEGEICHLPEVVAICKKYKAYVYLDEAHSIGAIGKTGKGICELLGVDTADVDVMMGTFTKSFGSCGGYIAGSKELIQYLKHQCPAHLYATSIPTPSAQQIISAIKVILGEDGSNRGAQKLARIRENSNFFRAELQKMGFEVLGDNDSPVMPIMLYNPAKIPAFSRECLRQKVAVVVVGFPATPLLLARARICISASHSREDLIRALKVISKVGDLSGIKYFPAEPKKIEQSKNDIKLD
T9 sequence (Q9C5I0 1-157, stated change not applied, one chain of several): as the sequence (Q9C5I0 1-157 S67R, one chain of several) above, with R67S counted along it

[10] = biological target: T2, AtSPT-ORM1 complex (LCB1, LCB2a, SPTssa, ORM1); experiment: SPT activity, DTNB detection of CoA-SH release, […] nm; sigmoidal fit; details: 100 mM L-serine, 25 μM PLP, pH 7.5, 30 °C; active site in LCB2a/LCB1
[11] = biological target: T4, AtSPT-ORM1 complex (LCB1, LCB2a, SPTssa, ORM1); experiment: as above; details: 100 mM L-serine, 25 μM PLP, pH 7.5, 30 °C; active site in LCB2a/LCB1
[12] = biological target: T10, AtSPT complex (LCB1, LCB2a, SPTssa) (Arabidopsis thaliana, UniProt Q94IB8+Q9LSZ9); experiment: SPT activity, DTNB detection of CoA-SH release, […] nm; details: 100 mM L-serine, 100 μM palmitoyl-CoA, 25 μM PLP, pH 7.5, 30 °C; active site in LCB2a/LCB1
T10 construct: full-length codon-optimized cDNAs; N-terminal Flag on SPTssa, other chains untagged; HEK293F, GDN; without ORM1; with Serine palmitoyltransferase small subunit A
T10 sequence (Q9LSZ9 1-489): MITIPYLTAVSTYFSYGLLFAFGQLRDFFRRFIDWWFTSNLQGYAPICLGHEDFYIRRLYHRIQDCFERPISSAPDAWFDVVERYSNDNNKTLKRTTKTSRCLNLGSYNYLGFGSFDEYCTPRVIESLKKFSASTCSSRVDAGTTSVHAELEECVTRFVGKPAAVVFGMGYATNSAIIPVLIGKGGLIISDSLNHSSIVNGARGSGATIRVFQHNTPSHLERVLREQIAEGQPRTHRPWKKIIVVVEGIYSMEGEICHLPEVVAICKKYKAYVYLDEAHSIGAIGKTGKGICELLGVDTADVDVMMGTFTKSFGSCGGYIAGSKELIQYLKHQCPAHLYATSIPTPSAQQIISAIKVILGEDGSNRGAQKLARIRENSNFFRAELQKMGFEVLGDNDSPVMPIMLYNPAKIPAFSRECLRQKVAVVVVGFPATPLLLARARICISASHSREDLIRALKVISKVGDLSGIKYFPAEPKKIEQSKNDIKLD
T10 sequence (Q94IB8 1-482): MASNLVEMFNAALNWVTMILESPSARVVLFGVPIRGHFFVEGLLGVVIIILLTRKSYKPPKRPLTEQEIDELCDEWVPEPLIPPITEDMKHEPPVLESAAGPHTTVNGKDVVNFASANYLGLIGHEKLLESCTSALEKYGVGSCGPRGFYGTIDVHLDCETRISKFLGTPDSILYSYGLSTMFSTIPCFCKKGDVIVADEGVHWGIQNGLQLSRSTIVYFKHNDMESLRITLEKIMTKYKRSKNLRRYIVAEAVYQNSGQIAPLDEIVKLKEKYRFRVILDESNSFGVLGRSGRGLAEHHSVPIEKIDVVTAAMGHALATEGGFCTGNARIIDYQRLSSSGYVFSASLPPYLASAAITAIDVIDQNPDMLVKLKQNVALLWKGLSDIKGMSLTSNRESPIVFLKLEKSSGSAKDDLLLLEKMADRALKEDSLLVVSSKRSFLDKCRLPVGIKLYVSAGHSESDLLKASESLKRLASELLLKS
T10 sequence (A8MSB8 1-56 partner): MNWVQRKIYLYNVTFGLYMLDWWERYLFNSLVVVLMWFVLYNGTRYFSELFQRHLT

[13] = biological target: T5, AtSPT-ORM1 complex (LCB1, LCB2a, SPTssa, ORM1); experiment: as above; details: 100 mM L-serine, 100 μM palmitoyl-CoA, 25 μM PLP, pH 7.5, 30 °C; active site in LCB2a/LCB1

Structure (SMILES): CCCCCCCCCCCCCC[C@@H](O)[C@@H](O)[C@H](CO)NC(=O)CCCCC [C6-phytoceramide]
- IC50 [1]: 1260 nM
- SPT activity, DTNB detection of CoA-SH release, 412 nm [2]: basically eliminated the inhibitory effect of C6-phytoceramide
- IC50 [3]: 1280 nM
- IC50 [4]: 1680 nM
- IC50 [5]: 320 nM
- SPT activity, DTNB detection of CoA-SH release, 412 nm [6]: ORM1-W20R or ORM1-W88R mutation also virtually abolished the inhibitory effect of C6-phytoceramide
- SPT activity, DTNB detection of CoA-SH release, 412 nm [7]: ORM1-N17A/S67R double mutation nearly eliminated the inhibitory effect of C6-phytoceramide
- SPT activity, DTNB detection of CoA-SH release, 412 nm [8]: ORM1-W20R or ORM1-W88R mutation also virtually abolished the inhibitory effect of C6-phytoceramide
- IC50 [9]: 990 nM

Structure (SMILES): CCCCCCCCCCCCCCCC(=O)SCCNC(=O)CCNC(=O)[C@H](O)C(C)(C)COP(=O)(O)OP(=O)(O)OC[C@H]1O[C@@H](n2cnc3c(N)ncnc32)[C@H](O)[C@@H]1OP(=O)(O)O [palmitoyl-CoA]
- Khalf [10]: the Khalf value of the AtSPT-ORM1 (ORM1-ΔN14) variant toward palmitoyl-CoA was much lower
- Khalf [11]: the Khalf value of the variant toward palmitoyl-CoA was nearly seven times as high

Structure (SMILES): CCCCCCC(=O)CCCCCC/C=C/C[C@@H](O)[C@H](O)[C@@](N)(CO)C(=O)O [myriocin]
- inhibition at 10 μM [12]: can be repressed by a potent SPT-specific inhibitor myriocin
- inhibition at 10 μM [13]: can be repressed by a potent SPT-specific inhibitor myriocin

Structure (SMILES): CCCCCCCCCCCCC/C=C/[C@@H](O)[C@H](CO)NC(=O)CCCCC [C6-ceramide]
- IC50 [5]: 3500 nM
